Structures can show the parent of a compound that is named as a salt. A value given as a limit tells only on which side of the number the result lay.

This is an account of results in patent publication US5710179A, “Antitumor agent” (priority 1995, dated 1998).

For assay [1], the system named is human malignant tumors. The settings on record: Foods & Food Ingredients Journal of Japan, Vol.160 (1994); cited from earlier work.
For another assay, the system named is Meth A sarcoma. Put plainly: Antitumor activity on mouse with carcinoma (Meth A sarcoma, i.p., 40 days). In kind it is in vivo, BALB/c male mice. The settings on record: for Average day surviving: 40 days, control 28.1 ± 0.2; for Prolongation percentage of life (T/C %): control 100; for Number surviving after 40 days: group of 10, control 0. As to the method:
About 1×10^6 cells/mouse of Meth A sarcoma was intraperitoneally injected into 8-week-old BALB/c male mice. From the next day after the administration, mice in a group of 10 were intraperitoneally injected twice a week with 0.2 ml of a physiological saline containing 0.0005, 0.005, 0.05 or 0.5 μg of any one of the compounds 1-5, and observed for 40 days. As a control, 0.2 ml/mouse/shot of physiological saline free of the compounds 1-5 was intraperitoneally injected to other groups of mice similarly as above.
Based on the data of the average day surviving (T) in the Groups of mice with the compounds 1-5 and the average day surviving (C) in the control group of mice, the prolongation percentage of life (T/C %) was calculated by the formula 1. [formula]

The test system of a further assay is HLC-1 cell (lung cancer). The assay is described as follows: Inhibition of tumor growth in nude mice, HLC-1. In kind it is in vivo, human. Details: Average tumor weight, on a wet cell basis: unit not given here. The settings on record: 0.05 μg/mouse s.c. twice a week.
Assay [2] concerns HGC-27 cell (gastric cancer). The assay is described as follows: Inhibition of tumor growth in nude mice, HGC-27. The class given is in vivo, human. The settings on record: 0.05 μg/mouse s.c. twice a week.
Assay [3] concerns Hep G2 cell (cancer of liver). Put plainly: Inhibition of tumor growth in nude mice, Hep G2. The class given is in vivo, human. The settings on record: 0.05 μg/mouse s.c. twice a week.
For assay [4], the system named is HeLa cell (uterine cancer). The assay is described as follows: Inhibition of tumor growth in nude mice, HeLa. The class given is in vivo, human. The settings on record: 0.05 μg/mouse s.c. twice a week.
Assay [5] deals with RPMI 4788 cell (colon cancer). Put plainly: Inhibition of tumor growth in nude mice, RPMI 4788. In kind it is in vivo, human. The settings on record: 0.05 μg/mouse s.c. twice a week.
Assay [6] has as its system WiDr cell (rectum cancer). The assay is described as follows: Inhibition of tumor growth in nude mice, WiDr. The settings on record: 0.05 μg/mouse s.c. twice a week. In kind it is in vivo, human.
Assay [7] has as its system KB cell (rhinopharynx cancer). Put plainly: Inhibition of tumor growth in nude mice, KB. The settings on record: 0.05 μg/mouse s.c. twice a week. In kind it is in vivo, human.
For assay [8], the system named is Hep-2 cell (thyroid gland cancer). The assay is described as follows: Inhibition of tumor growth in nude mice, Hep-2. The settings on record: 0.05 μg/mouse s.c. twice a week. The class given is in vivo, human.
Assay [9] concerns G-361 cell (malignant melanoma). The assay is described as follows: Inhibition of tumor growth in nude mice, G-361. The settings on record: 0.05 μg/mouse s.c. twice a week. The class given is in vivo, human.
In a further assay the test system is HL-60 cell (leukemia). The assay is described as follows: Inhibition of tumor growth in nude mice, HL-60. In kind it is in vivo, human. The settings on record: 0.05 μg/mouse s.c. twice a week.
In another assay the test system is U-937 cell (lymphoma). The assay is described as follows: Inhibition of tumor growth in nude mice, U-937. In kind it is in vivo, human. The settings on record: 0.05 μg/mouse s.c. twice a week.
Assay [10] deals with human malignant tumors. Put plainly: Antitumor activity by the inhibition of tumor growth, nude mice, summary over human tumors. The class given is in vivo. The settings on record: 0.05 μg s.c. twice a week. As to the method:
Based on the data of Experiment 2, a minimum dose of the compounds 1-5 to a nude mouse was estimated to be about 0.05 μg/mouse/shot, and the antitumor activity of the compounds 1-5 was tested by administering them at the above dose to nude mice transplanted with human malignant tumors.
Thereafter mice, observed the tumor cells' insertion, were grouped in a group of 7 mice, then administered twice a week with 0.2 ml of a physiological saline containing 0.05 μg of the compound 2 to the dorsal subcutaneous tissues, and observed for 25 days. As a control, mice in other group were administered in the same administration schedule with 0.2 ml/shot of physiological saline free of the compound 2.
On the 27th day after the transplantation, tumor masses formed in the nude mice were extracted and weighed, on a wet cell basis, according to the method as disclosed by Y. Shimosato and N. Tamaoki in "Jingan-to-Nude-mouse (Human Cancer and Nude Mice)", pp. 321-323 (1982), published by Ishiyaku Publishers, Inc., Tokyo, Japan, and the percentage surviving (%) on the 35th day after the transplantation was calculated.

[11] abbreviates: 0.0005 μg/0.2 ml/mouse i.p. twice a week.
[12] abbreviates: 0.005 μg/0.2 ml/mouse i.p. twice a week.
[13] abbreviates: 0.05 μg/0.2 ml/mouse i.p. twice a week.
[14] abbreviates: 0.05 μg/0.2 ml/mouse i.p. twice a week, all marked * (significant, 5% level or lower vs control).
[15] abbreviates: 0.5 μg/0.2 ml/mouse i.p. twice a week.
Where [16] appears, read: 0.5 μg/0.2 ml/mouse i.p. twice a week, all marked * (significant, 5% level or lower vs control).

For the compound `O=C(/C=C/c1ccc(O)c(O)c1)OCCc1ccccc1` [caffeic acid phenethyl ester], in the assay with human malignant tumors [1], the “antitumor activity on human malignant tumors” value is “exerted an antitumor activity”.

In the case of `CC(C)=CCc1cc(/C=C/C(=O)O)cc(CC=C(C)C)c1O` [compound 1, 3-[4-hydroxy-3,5-bis(3-methyl-2-butenyl)phenyl]-2-propenoic acid], the Average day surviving with Meth A sarcoma (setting [11]) worked out at 33.5 ± 0.6 days; in the assay with Meth A sarcoma (setting [12]), 35.0 ± 0.9 days; with Meth A sarcoma (setting [13]) it was 37.3 ± 0.4 days; in the assay with Meth A sarcoma (setting [15]) it was 39.8 ± 0.1 days. For the same compound, the “Prolongation percentage of life (T/C %)” value in the assay with Meth A sarcoma (setting [11]) came out at 119.2%; with Meth A sarcoma (setting [12]), 124.6%; with Meth A sarcoma (setting [14]) it was 132.7%; in the assay on Meth A sarcoma (setting [16]), 141.6%. Further, the “Number surviving after 40 days” value in the assay with Meth A sarcoma (setting [11]) was 3; with Meth A sarcoma (setting [12]), 5; with Meth A sarcoma (setting [13]), 7; in the assay with Meth A sarcoma (setting [15]) it was 9.

In the case of `CC(C)=CCc1cc(/C=C/C(=O)O)cc(CC=C(C)C)c1O` [compound 2, sodium salt of 3-[4-hydroxy-3,5-bis(3-methyl-2-butenyl)phenyl]-2-propenoic acid], the Average day surviving in the assay with Meth A sarcoma (setting [11]) was 32.3 ± 0.8 days; in the assay on Meth A sarcoma (setting [12]), 36.5 ± 0.5 days; in the assay with Meth A sarcoma (setting [13]), 38.1 ± 0.1 days; in the assay with Meth A sarcoma (setting [15]) it was over 40.0 days. The “Prolongation percentage of life (T/C %)” value in the assay with Meth A sarcoma (setting [11]) was 114.9%; with Meth A sarcoma (setting [12]), 129.9%; in the assay on Meth A sarcoma (setting [14]) it was 135.6%; with Meth A sarcoma (setting [16]), 142.3%. Moreover, the “Number surviving after 40 days” value is given as 2 with Meth A sarcoma (setting [11]), 6 in the assay on Meth A sarcoma (setting [12]), 8 in the assay on Meth A sarcoma (setting [13]) and 10 in the assay with Meth A sarcoma (setting [15]). Further, the “Average tumor weight, on a wet cell basis” value in the assay with HLC-1 cell (lung cancer) (27th day after transplantation, control 1.25 ± 0.81) is listed as 0.124 ± 0.06; in assay [2] (27th day after transplantation, control 1.86 ± 0.64, in g (unit assumed)), 0.35 ± 0.09; in assay [3] (27th day after transplantation, control 2.06 ± 0.85, in g (unit assumed)), 0.18 ± 0.02; in assay [4] (27th day after transplantation, control 1.36 ± 0.61, in g (unit assumed)), 0.54 ± 0.06; in [5] (27th day after transplantation, control 2.95 ± 1.36, in g (unit assumed)), 0.21 ± 0.03; in assay [6] (27th day after transplantation, control 1.83 ± 0.85, in g (unit assumed)), 0.36 ± 0.02. The “Average tumor weight, on a wet cell basis” value in assay [7] (27th day after transplantation, control 2.12 ± 0.96, in g (unit assumed)) is 0.54 ± 0.03; in assay [8] (27th day after transplantation, control 2.16 ± 1.31, in g (unit assumed)), 0.81 ± 0.65; in [9] (27th day after transplantation, control 1.96 ± 0.98, in g (unit assumed)), 0.36 ± 0.02; in the assay with HL-60 cell (leukemia) (27th day after transplantation, control 1.43 ± 0.08, in g (unit assumed)), 0.18 ± 0.03; with U-937 cell (lymphoma) (27th day after transplantation, control 0.99 ± 0.81, in g (unit assumed)) it was 0.25 ± 0.02. Also, the “Percentage surviving at judgement (%)” value in the assay on HLC-1 cell (lung cancer) (35th day, control 71.4) is reported as 100%; in assay [2] (35th day, control 85.7) it was 100%; in assay [3] (35th day, control 42.8), 100%; in [4] (35th day, control 100) it was 100%; in [5] (35th day, control 71.4), 100%; in assay [6] (35th day, control 85.7), 100%. For the same compound, the “Percentage surviving at judgement (%)” value came out at 100% in assay [7] (35th day, control 42.8); 100% in [8] (35th day, control 42.8); 100% in [9] (35th day, control 57.1); 100% in the assay with HL-60 cell (leukemia) (35th day, control 100); 100% in the assay with U-937 cell (lymphoma) (35th day, control 85.7). Also, the “antitumor effect on human malignant tumors” value with human malignant tumors [10] is listed as “strong antitumor effect”. For the same compound, the “percentage surviving on the 35th day after the transplantation” value with human malignant tumors [10] is “attained a desired percentage surviving”.

In the case of `CC(C)=CCc1cc(/C=C/C(=O)O)cc(CC=C(C)C)c1O` [compound 3, calcium salt of 3-[4-hydroxy-3,5-bis(3-methyl-2-butenyl)phenyl]-2-propenoic acid], the Average day surviving in the assay with Meth A sarcoma (setting [11]) is 31.1 ± 0.6 days; in the assay with Meth A sarcoma (setting [12]), 35.9 ± 0.3 days; with Meth A sarcoma (setting [13]) it was 38.9 ± 0.2 days; in the assay on Meth A sarcoma (setting [15]), 39.0 ± 0.2 days. Also, the “Prolongation percentage of life (T/C %)” value in the assay with Meth A sarcoma (setting [11]) came out at 110.7%; in the assay with Meth A sarcoma (setting [12]) it was 127.8%; with Meth A sarcoma (setting [14]), 138.4%; in the assay with Meth A sarcoma (setting [16]) it was 138.8%. Also, the “Number surviving after 40 days” value in the assay on Meth A sarcoma (setting [11]) turned out to be 2; with Meth A sarcoma (setting [12]) it was 6; in the assay with Meth A sarcoma (setting [13]), 8; in the assay with Meth A sarcoma (setting [15]), 9.

In the case of `CC(C)=CCc1cc(/C=C/C(=O)O)cc(CC=C(C)C)c1O` [compound 4, magnesium salt of 3-[4-hydroxy-3,5-bis(3-methyl-2-butenyl)phenyl]-2-propenoic acid], the Average day surviving is 34.9 ± 0.3 days in the assay on Meth A sarcoma (setting [11]), 35.7 ± 0.4 days in the assay with Meth A sarcoma (setting [12]), 37.5 ± 0.2 days in the assay with Meth A sarcoma (setting [13]) and over 40.0 days in the assay with Meth A sarcoma (setting [15]). Besides, the “Prolongation percentage of life (T/C %)” value in the assay on Meth A sarcoma (setting [11]) turned out to be 124.2%; with Meth A sarcoma (setting [12]) it was 127.0%; with Meth A sarcoma (setting [14]) it was 133.5%; with Meth A sarcoma (setting [16]) it was 142.3%. The “Number surviving after 40 days” value was determined as 3 in the assay on Meth A sarcoma (setting [11]), 5 in the assay on Meth A sarcoma (setting [12]), 7 in the assay with Meth A sarcoma (setting [13]) and 10 in the assay with Meth A sarcoma (setting [15]).

`CC(C)=CCc1cc(/C=C/C(=O)O)cc(CC=C(C)C)c1O` [compound 5, potassium salt of 3-[4-hydroxy-3,5-bis(3-methyl-2-butenyl)phenyl]-2-propenoic acid]: the Average day surviving in the assay on Meth A sarcoma (setting [11]) amounted to 32.6 ± 0.6 days; in the assay with Meth A sarcoma (setting [12]), 36.1 ± 0.5 days; with Meth A sarcoma (setting [13]) it was 38.2 ± 0.4 days; with Meth A sarcoma (setting [15]) it was 39.2 ± 0.3 days. Further, the “Prolongation percentage of life (T/C %)” value in the assay on Meth A sarcoma (setting [11]) is reported as 116.0%; in the assay with Meth A sarcoma (setting [12]), 128.5%; with Meth A sarcoma (setting [14]), 135.9%; in the assay with Meth A sarcoma (setting [16]), 139.5%. The “Number surviving after 40 days” value with Meth A sarcoma (setting [11]) came out at 2; with Meth A sarcoma (setting [12]) it was 6; in the assay on Meth A sarcoma (setting [13]), 8; with Meth A sarcoma (setting [15]), 9.

Turning to `O=c1c(O)c(-c2ccc(O)c(O)c2)oc2cc(O)cc(O)c12` [quercetin], the “antitumor activity on human malignant tumors” value in the assay with human malignant tumors [1] is “exerted an antitumor activity”.
